Measured values from patent US20250230193A1, “CYCLIC COMPOUND HAVING SELECTIVE KRAS INHIBITORY EFFECT ON HRAS AND NRAS” (CHUGAI SEIYAKU KABUSHIKI KAISHA, priority 2022, published 2025).
Where a SMILES comes first, the peptide text is derived from it. Bridges are numbered along the chain shown (N, C = ends). [ ]: non-standard residue; d: D form. The star is where a group is joined. hPhe(3-Cl-4-CF3) = N[C@@H](CCc1ccc(C(F)(F)F)c(Cl)c1)C(=O)O; NPrPhe(4-CF3) = CCCN[C@@H](Cc1ccc(C(F)(F)F)cc1)C(=O)O; NMeGly(cPent) = CN[C@H](C(=O)O)C1CCCC1; NMeD = CN[C@@H](CC(=O)O)C(=O)O; NMeL = CN[C@@H](CC(C)C)C(=O)O; Morpholide = C1CN(*)CCO1; Ac5c = NC1(C(=O)O)CCCC1; Aze = O=C(O)[C@@H]1CCN1; Sar = CNCC(=O)O

Legend:
[1] = molecular target: GDP-bound NRAS wild-type protein (Homo sapiens, UniProt P01111); experiment: Binding to NRAS by surface plasmon resonance (SPR), Single Cycle Kinetics; conditions: SPR
Chain of GDP-bound NRAS wild-type protein (P01111 whole entry): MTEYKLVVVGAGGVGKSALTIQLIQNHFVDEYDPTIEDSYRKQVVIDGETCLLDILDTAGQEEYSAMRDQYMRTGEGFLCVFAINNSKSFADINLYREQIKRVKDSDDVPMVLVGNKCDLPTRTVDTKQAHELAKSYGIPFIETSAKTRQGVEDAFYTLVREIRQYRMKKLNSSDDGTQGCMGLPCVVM

[2] = molecular target: GDP-bound HRAS wild-type protein (Homo sapiens, UniProt P01112); experiment: Binding to HRAS by surface plasmon resonance (SPR), Single Cycle Kinetics; conditions: SPR
Chain of GDP-bound HRAS wild-type protein (P01112 whole entry): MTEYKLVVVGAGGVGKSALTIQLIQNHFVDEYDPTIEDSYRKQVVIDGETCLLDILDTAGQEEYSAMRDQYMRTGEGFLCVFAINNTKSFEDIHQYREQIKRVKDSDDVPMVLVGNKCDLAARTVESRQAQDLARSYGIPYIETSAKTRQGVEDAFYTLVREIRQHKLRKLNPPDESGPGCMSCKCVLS

[3] = KD ratio, GDP-bound NRAS wild-type vs GDP-bound KRAS wild-type
[4] = KD ratio, GDP-bound HRAS wild-type vs GDP-bound KRAS wild-type

| Compound | NRAS/KRAS (ratio of KD value with respect to NRAS to KD value with respect to KRAS) [1, 3] | HRAS/KRAS (ratio of KD value with respect to HRAS to KD value with respect to KRAS) [2, 4] | other results |
| --- | --- | --- | --- |
| CCO[C@@H]1C[C@H]2C(=O)NC3(CCC3)C(=O)N(C)[C@@H](C3CCCC3)C(=O)N(C)[C@H](C(=O)N(C)C)CC(=O)N(C)[C@@H](CC3CCC3)C(=O)N[C@@H]([C@@H](C)CC)C(=O)N(C)CC(=O)N(C)[C@H]3C/C=C\CCN(C3=O)[C@@H](Cc3ccc(C(F)(F)F)cc3)C(=O)N(C)CC(=O)N[C@@H](CCc3cc(F)c(C(F)(F)F)c(F)c3)C(=O)N2C1 [PP1118] | A (a compound having 10 or more and less than 20 is denoted as A) | B (a compound having 3 or more and less than 10 is denoted as B) | – |
| CCO[C@@H]1C[C@H]2C(=O)NC3(CCC3)C(=O)N(C)[C@@H](C3CCCC3)C(=O)N3CCC[C@@H]3CC(=O)N(C)[C@@H](CC)C(=O)N[C@@H]([C@@H](C)CC)C(=O)N(C)CC(=O)N(C)[C@H]3C/C=C\CCN(C3=O)[C@@H](Cc3ccc(C(F)(F)F)cc3)C(=O)N(C)CC(=O)N[C@@H](CCc3cc(F)c(C(F)(F)F)c(F)c3)C(=O)N2C1 [PP1097] | B (a compound having 3 or more and less than 10 is denoted as B) | B (a compound having 3 or more and less than 10 is denoted as B) | – |
| C#CC[C@H]1C(=O)N[C@@H]([C@@H](C)CC)C(=O)N(C)CC(=O)N(C)[C@H]2C/C=C\CCN(C2=O)[C@@H](Cc2ccc(C(F)(F)F)cc2)C(=O)N(C)CC(=O)N[C@@H](CCc2cc(F)c(C(F)(F)F)c(F)c2)C(=O)N2C[C@H](OCC)C[C@H]2C(=O)NC2(CCC2)C(=O)N(C)[C@@H](C2CCCC2)C(=O)N(C)[C@H](C(=O)N(C)C)CC(=O)N1C [PP1115] | A (a compound having 10 or more and less than 20 is denoted as A) | A (a compound having 10 or more and less than 20 is denoted as A) | – |
| CCO[C@@H]1C[C@H]2C(=O)NC3(CCC3)C(=O)N(C)[C@@H](C3CCCC3)C(=O)N(C)[C@H](C(=O)N(C)C)CC(=O)N(C)[C@@H](Cc3ccccc3)C(=O)N[C@@H]([C@@H](C)CC)C(=O)N(C)CC(=O)N(C)[C@H]3CCCCCN(C3=O)[C@@H](Cc3ccc(C(F)(F)F)cc3)C(=O)N(C)CC(=O)N[C@@H](CCc3cc(F)c(C(F)(F)F)c(F)c3)C(=O)N2C1 [PP0672] | – | – | NRAS/KRAS (ratio of KD value with respect to GDP-bound NRAS wild-type protein to KD value with respect to KRAS) ([1]; KD ratio NRAS/KRAS): B (a compound having 3 or more and less than 10 is denoted as B); HRAS/KRAS (ratio of KD value with respect to GDP-bound HRAS wild-type protein to KD value with respect to KRAS) ([2]; KD ratio HRAS/KRAS): B (a compound having 3 or more and less than 10 is denoted as B) |
| CCCN(C)C(=O)[C@@H]1CC(=O)N(C)[C@@H](CC(F)(F)F)C(=O)N[C@@H]([C@@H](C)CC)C(=O)N(C)CC(=O)N(C)[C@H]2C/C=C\CCN(C2=O)[C@@H](Cc2ccc(C(F)(F)F)cc2)C(=O)N(C)CC(=O)N[C@@H](CCc2cc(F)c(C(F)(F)F)c(F)c2)C(=O)N2C[C@H](OCC)C[C@H]2C(=O)NC2(CC(F)(F)C2)C(=O)N(C)[C@@H](C2CCCC2)C(=O)N1C [PP1734] | – | – | NRAS/KRAS (ratio of KD value for NRAS to KD value for KRAS) [1, 3]: A (a compound having 10 or more and less than 20 is denoted as A); HRAS/KRAS (ratio of KD value for HRAS to KD value for KRAS) [2, 4]: A (a compound having 10 or more and less than 20 is denoted as A) |
| CCCN1C(=O)CN(C)C(=O)CN(C)C(=O)[C@H]([C@@H](C)CC)NC(=O)[C@H](CC(C)C)N(C)C(=O)C[C@@H](C(=O)N2CCOCC2)N(C)C(=O)[C@H](C2CCCC2)N(C)C(=O)C2(CCCC2)NC(=O)[C@@H]2CCN2C(=O)[C@H](CCc2ccc(C(F)(F)F)c(Cl)c2)NC(=O)CN(C)C(=O)[C@@H]1Cc1ccc(C(F)(F)F)cc1 [PP0260] ([NMeL]I[Sar][Sar][NPrPhe(4-CF3)][Sar][hPhe(3-Cl-4-CF3)][Aze][Ac5c][NMeGly(cPent)][NMeD]-Morpholide; lactam N-11) | – | – | NRAS/KRAS (ratio of KD for GDP-bound NRAS wild-type to KD for KRAS) ([1]; KD ratio NRAS/KRAS): B (a compound having 3 or more and less than 10 is denoted as B); HRAS/KRAS (ratio of KD for GDP-bound HRAS wild-type to KD for KRAS) ([2]; KD ratio HRAS/KRAS): C (A compound having a KD ratio of 0.1 or more and less than 3 is denoted as C) |
| C=CC[C@H]1C(=O)N[C@@H]([C@@H](C)CC)C(=O)N(C)CC(=O)N(C)[C@H]2C/C=C\CCN(C2=O)[C@@H](Cc2ccc(C(F)(F)F)cc2)C(=O)N(C)CC(=O)N[C@@H](CCc2cc(F)c(C(F)(F)F)c(F)c2)C(=O)N2C[C@H](OCC)C[C@H]2C(=O)NC2(CCC2)C(=O)N(C)[C@@H](C2CCCC2)C(=O)N(C)[C@H](C(=O)N(C)C)CC(=O)N1C [PP1114] | A (a compound having 10 or more and less than 20 is denoted as A) | A (a compound having 10 or more and less than 20 is denoted as A) | – |
